This is an account of results in ChEMBL document CHEMBL4354828, “Discovery of Taniborbactam (VNRX-5133): A Broad-Spectrum Serine- and Metallo-β-lactamase Inhibitor for Carbapenem-Resistant Bacterial Infections” (J Med Chem, 2020).

Series [1] has as its system Escherichia coli. The series is described as follows: Effect on growth of wild type Escherichia coli ATCC 25922 after 16 to 20 hrs by CLSI-based microbroth dilution method. As to conditions: in vitro; call rule not given here. The format is organism-based. (In broth dilution the organism is exposed to a series of concentrations in liquid medium.)
Series [2] is described as follows: Cytotoxicity against human Proximal tubule epithelial cells up to 1000 ug/ml relative to control. The class given is cell-based.
Series [3] has as its target Voltage-gated inwardly rectifying potassium channel KCNH2 (Homo sapiens, UniProt Q12809). The series is described as follows: Inhibition of human ERG at 100 uM.
The target in series [4] is Chymotrypsin (Homo sapiens, UniProt Q99895+P17538+P40313+Q6GPI1). The series is described as follows: Inhibition of human chymotrypsin at 100 uM. The format is protein assay.
For series [5], the target named is Cytochrome P450 2D6 (Homo sapiens, UniProt P10635). The series is described as follows: Inhibition of human CYP2D6 at 100 uM. The format is ADME.
For series [6], the target named is Neutrophil elastase (Homo sapiens, UniProt P08246). Kind of series: Inhibition of human neutrophil elastase 2 at 100 uM.
Series [7] addresses Cytochrome P450 1A2 (Homo sapiens, UniProt P05177). Kind of series: Inhibition of human CYP1A2 at 100 uM. The class given is ADME.
For series [8], the target named is Cathepsin G (Homo sapiens, UniProt P08311). The series is described as follows: Inhibition of human cathepsin G at 100 uM.
Series [9] has as its system Escherichia coli. The series is described as follows: Antibacterial activity against Escherichia coli UNT057-1 expressing CTX-M-15 infected in C3H/Hej mouse assessed as log reduction in viable bacterial counts in kidney at 8 mg/kg, sc bid co-treated with 16 mg/kg of cefepime and measured after 7 days (reference value: 7.25 +/- 0.16). The class given is functional.
Series [10] deals with Escherichia coli. The series is described as follows: Inhibition of TEM/CTX-M/SHV/Cephalosporinase in Escherichia coli CH1 assessed as cefepime antibacterial activity at 4 ug/ml after 16 to 20 hrs by CLSI-based microbroth dilution method (Rvb > […] ug/ml).
For series [11], the target named is Stromelysin-1 (Homo sapiens, UniProt P08254). The series is described as follows: Inhibition of human MMP3 at 100 uM.
The subject of series [12] is Klebsiella pneumoniae. Kind of series: Effect on growth of Klebsiella pneumoniae A-1797 expressing KPC-2/VIM-4/CMY-4 after 16 to 20 hrs by CLSI-based microbroth dilution method. As to conditions: in vivo. The format is organism-based.
Series [13] deals with Cytochrome P450 2C9 (Homo sapiens, UniProt P11712). Kind of series: Inhibition of human CYP2C9 at 100 uM. The class given is ADME.
Series [14] can be described thus: Cytotoxicity against human MRC5 cells assessed as growth inhibition at 256 ug/ml relative to control. The format is cell-based. As to conditions: read-out: Activity.
Series [15] deals with Klebsiella pneumoniae. The series is described as follows: Inhibition of TEM/CTX-M/SHV/KPC in Klebsiella pneumoniae 964-2 assessed as cefepime antibacterial activity at 4 ug/ml after 16 to 20 hrs by CLSI-based microbroth dilution method (Rvb > […] ug/ml).
The target in series [16] is Beta-lactamase VIM-2 (Pseudomonas aeruginosa) (UniProt Q9K2N0). The series is described as follows: Inhibition of VIM-2 in Pseudomonas aeruginosa assessed as meropenem antibacterial activity at 4 ug/ml after 16 to 20 hrs by CLSI-based microbroth dilution method (Rvb >= […] ug/ml).
For series [17], the system named is Pseudomonas aeruginosa. The series is described as follows: Effect on growth of wild type Pseudomonas aeruginosa 27853 after 16 to 20 hrs by CLSI-based microbroth dilution method. The format is organism-based.
Series [18] has as its system Klebsiella pneumoniae. Kind of series: Inhibition of TEM/CTX-M/SHV in Klebsiella pneumoniae 9032 assessed as cefepime antibacterial activity at 4 ug/ml after 16 to 20 hrs by CLSI-based microbroth dilution method (reference value: […] ug/ml).
The subject of series [19] is Klebsiella pneumoniae. The series is described as follows: Effect on growth of Klebsiella pneumoniae 11978 expressing OXA-48 after 16 to 20 hrs by CLSI-based microbroth dilution method. The format is organism-based. As to conditions: in vivo.
Series [20] in a line: Inhibition of bacterial OXA-48 using nitrocefin as substrate preincubated for 15 mins followed by susbtrate addition and measured after 10 mins by spectrophotometric method. On the set-up: species or system Bacteria.
Series [21] in a line: Cytotoxicity against mouse 3T3 cells assessed as growth inhibition at 256 ug/ml relative to control. As to conditions: NIH3T3 cells, read-out: Activity. The format is cell-based.
The subject of series [22] is Klebsiella pneumoniae. The series is described as follows: Inhibition of OXA-48 in Klebsiella pneumoniae assessed as meropenem antibacterial activity at 4 ug/ml after 16 to 20 hrs by CLSI-based microbroth dilution method (Rvb >= […] ug/ml).

In brackets after ≈: the same amount, converted by molar mass.

Sequence of Stromelysin-1 (P08254 whole entry): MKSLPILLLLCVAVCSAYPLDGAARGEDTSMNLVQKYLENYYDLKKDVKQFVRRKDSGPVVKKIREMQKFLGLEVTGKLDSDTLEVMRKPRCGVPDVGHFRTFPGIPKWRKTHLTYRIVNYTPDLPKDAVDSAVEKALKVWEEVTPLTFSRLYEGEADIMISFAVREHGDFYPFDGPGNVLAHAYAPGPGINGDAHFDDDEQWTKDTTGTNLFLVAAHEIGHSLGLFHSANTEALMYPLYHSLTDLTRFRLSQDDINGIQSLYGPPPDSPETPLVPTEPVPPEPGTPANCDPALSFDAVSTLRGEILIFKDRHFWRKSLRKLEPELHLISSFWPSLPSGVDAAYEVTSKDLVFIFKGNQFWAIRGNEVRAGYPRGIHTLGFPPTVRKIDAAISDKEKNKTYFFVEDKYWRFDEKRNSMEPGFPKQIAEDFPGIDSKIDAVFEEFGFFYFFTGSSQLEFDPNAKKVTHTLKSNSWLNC
Sequence of Neutrophil elastase (P08246 whole entry): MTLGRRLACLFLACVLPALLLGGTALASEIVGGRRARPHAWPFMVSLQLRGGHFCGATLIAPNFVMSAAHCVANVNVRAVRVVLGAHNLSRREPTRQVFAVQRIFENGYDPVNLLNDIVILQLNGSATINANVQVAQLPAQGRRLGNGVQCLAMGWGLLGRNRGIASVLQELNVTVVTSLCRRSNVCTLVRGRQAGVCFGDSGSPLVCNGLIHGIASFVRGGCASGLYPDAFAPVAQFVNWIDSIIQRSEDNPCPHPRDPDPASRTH
Sequence of Cytochrome P450 2C9 (P11712 whole entry): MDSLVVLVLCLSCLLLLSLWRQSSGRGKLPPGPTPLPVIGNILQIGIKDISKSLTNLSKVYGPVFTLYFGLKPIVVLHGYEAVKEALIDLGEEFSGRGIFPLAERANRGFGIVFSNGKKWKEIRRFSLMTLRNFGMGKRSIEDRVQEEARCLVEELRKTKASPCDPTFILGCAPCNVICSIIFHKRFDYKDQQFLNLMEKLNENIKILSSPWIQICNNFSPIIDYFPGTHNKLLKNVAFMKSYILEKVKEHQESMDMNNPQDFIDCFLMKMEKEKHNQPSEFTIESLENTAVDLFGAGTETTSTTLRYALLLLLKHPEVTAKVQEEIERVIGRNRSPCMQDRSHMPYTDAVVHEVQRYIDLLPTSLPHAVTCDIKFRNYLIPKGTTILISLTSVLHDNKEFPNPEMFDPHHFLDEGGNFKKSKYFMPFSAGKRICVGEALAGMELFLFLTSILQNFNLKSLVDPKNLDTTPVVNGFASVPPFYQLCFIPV
Sequence of Voltage-gated inwardly rectifying potassium channel KCNH2 (Q12809 whole entry): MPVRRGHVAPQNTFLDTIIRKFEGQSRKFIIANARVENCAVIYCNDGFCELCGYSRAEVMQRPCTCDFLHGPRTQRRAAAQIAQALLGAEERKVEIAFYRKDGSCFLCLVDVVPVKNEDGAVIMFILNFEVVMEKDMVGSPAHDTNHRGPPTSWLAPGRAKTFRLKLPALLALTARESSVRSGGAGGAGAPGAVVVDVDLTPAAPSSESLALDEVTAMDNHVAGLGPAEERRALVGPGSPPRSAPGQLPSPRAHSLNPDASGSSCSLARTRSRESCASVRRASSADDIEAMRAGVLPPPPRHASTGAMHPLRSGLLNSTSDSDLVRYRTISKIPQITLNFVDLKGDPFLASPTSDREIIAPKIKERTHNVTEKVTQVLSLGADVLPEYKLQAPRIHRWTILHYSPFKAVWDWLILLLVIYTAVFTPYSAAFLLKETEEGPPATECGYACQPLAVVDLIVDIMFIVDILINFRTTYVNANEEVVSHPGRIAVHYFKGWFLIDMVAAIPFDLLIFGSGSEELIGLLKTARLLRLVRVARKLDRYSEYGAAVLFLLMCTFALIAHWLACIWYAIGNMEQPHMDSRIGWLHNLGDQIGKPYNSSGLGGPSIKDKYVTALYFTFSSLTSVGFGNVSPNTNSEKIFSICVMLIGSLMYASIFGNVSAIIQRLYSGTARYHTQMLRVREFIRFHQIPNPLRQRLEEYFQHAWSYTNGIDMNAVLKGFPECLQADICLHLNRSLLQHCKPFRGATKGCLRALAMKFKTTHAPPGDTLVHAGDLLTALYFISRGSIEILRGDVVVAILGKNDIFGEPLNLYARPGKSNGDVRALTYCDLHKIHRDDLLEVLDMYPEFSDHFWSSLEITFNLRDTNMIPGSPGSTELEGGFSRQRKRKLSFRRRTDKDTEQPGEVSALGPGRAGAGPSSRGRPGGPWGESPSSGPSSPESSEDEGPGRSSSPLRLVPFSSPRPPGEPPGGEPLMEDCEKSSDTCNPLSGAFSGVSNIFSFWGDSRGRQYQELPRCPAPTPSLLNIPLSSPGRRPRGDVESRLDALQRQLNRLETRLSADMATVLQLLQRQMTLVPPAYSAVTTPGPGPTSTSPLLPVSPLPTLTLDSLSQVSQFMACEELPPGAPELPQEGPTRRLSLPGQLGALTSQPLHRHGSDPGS
Sequence of Cytochrome P450 1A2 (P05177 whole entry): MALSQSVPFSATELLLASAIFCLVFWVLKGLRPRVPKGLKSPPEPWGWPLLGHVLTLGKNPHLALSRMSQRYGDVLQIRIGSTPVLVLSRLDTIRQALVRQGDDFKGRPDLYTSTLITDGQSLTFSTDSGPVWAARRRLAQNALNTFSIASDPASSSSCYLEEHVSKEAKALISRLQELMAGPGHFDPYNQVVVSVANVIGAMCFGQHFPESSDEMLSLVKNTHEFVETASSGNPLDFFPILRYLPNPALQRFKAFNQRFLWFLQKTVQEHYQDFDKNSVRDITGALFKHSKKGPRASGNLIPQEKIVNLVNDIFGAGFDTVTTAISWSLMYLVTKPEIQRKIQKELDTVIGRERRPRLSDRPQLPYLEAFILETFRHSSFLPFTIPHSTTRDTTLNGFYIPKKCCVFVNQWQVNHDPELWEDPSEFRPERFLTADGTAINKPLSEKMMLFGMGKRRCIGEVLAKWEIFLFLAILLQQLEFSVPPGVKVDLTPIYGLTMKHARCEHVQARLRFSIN
Sequence of Cathepsin G (P08311 whole entry): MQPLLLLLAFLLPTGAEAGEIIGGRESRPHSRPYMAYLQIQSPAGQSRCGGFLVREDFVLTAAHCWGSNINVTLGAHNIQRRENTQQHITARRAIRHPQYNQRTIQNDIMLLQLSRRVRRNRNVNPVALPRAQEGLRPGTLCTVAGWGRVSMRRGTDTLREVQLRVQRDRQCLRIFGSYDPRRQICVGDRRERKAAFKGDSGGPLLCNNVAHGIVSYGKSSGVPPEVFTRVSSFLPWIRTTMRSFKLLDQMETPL
Sequence of Cytochrome P450 2D6 (P10635 whole entry): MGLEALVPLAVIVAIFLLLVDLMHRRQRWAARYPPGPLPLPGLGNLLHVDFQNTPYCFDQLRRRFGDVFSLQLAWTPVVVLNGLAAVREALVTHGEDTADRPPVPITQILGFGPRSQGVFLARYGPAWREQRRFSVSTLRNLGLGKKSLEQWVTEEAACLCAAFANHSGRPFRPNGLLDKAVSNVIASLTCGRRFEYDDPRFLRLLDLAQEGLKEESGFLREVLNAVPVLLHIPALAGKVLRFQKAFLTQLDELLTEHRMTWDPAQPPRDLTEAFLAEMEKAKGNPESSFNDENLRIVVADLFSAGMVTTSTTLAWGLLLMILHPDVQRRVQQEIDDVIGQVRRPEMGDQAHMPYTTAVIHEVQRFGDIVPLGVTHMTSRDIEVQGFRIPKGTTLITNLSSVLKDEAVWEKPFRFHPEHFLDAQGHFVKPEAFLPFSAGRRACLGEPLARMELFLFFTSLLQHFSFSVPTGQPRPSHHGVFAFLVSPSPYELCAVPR

Take `NCCN[C@H]1CC[C@H](CC(=O)N[C@H]2Cc3cccc(C(=O)O)c3OB2O)CC1`: the MIC in series [1] was more than 128 µg/mL; in series [10] it was less than 0.125 µg/mL; in [12], more than 128 µg/mL; in series [15], less than 0.125 µg/mL; in [16], 0.06 µg/mL (≈ 0.154 µM); in series [17], more than 128 µg/mL. The MIC in series [18] is less than 0.125 µg/mL; in series [19], more than 128 µg/mL; in series [22] it was 2 µg/mL (≈ 5.14 µM). Also, the Activity entry in series [2] is recorded as “Non-Toxic”; in series [9], 4.87 log10CFU. Further, the “inhibition (INH)” value in [3], in series [4], in [5], in series [6], in series [7] and in series [8] was “Not Active” each time. For the same compound, the “inhibition (INH)” value in series [11] and in [13] was “Not Active” throughout. The inhibition at 256 ug/ml in [14] and in series [21] was less than 20% each time. In addition, the concentration for half-maximal inhibition (IC50) (as a rule, the midpoint of a concentration-inhibition curve) in [20] turned out to be 420 nM.
